Data set [1] concerns MCF-7. The experiment in a line: Antiproliferative activity, MTT dye-reduction assay, MCF-7. In kind it is cell-based, human. The following applies: for SI ± SD MCF-7 (selective index): SI = IC50 of MCF-10A/IC50 of MCF-7. On the procedure: (§1) The compounds were studied for antiproliferative activity by MTT dye-reduction assay. Cell cultures from different cell lines (MCF-10A, MCF-7 and MDA-MB-231) were incubated with the test substances at a concentration of 15 to 2000 μM for 72 h at 37 °C, 5% CO2 and 95% humidity. The antiproliferative activity expressed in % relative to the negative control was determined.
(§2) The antiproliferative activity testing was performed on cell cultures from several human cell lines using the standard MTT dye-reduction assay, described by Mosmann. The assay is based on the metabolism of the tetrazolium salt 3-(4,5-dimethylthiazol-2-yl)-2,5-diphenyltetrazolium bromide (MTT) to insoluble formazan by mitochondrial reductases. The formazan concentration can be determined spectrophotometrically. The measured absorption is an indicator of cell viability and metabolic activity. The following cell lines were used in the experiments: mammary gland type A adenocarcinoma ER+, PR+ and HER2− (MCF-7); triple-negative breast cancer ER−, PR−, and HER2− (MDA-MB-231); and breast, nontumorigenic epithelial cell line (MCF-10A). The cell lines were routinely grown as monolayers in 75 cm^2 tissue culture flasks under standard conditions (described above). Cells were plated at a density of 1 × 10^3 cells in 100 µL in each well of 96-well flat-bottomed microplates and allowed to adhere for 24 h before treatment with test compounds. A concentration range from 15 to 2000 μM was applied for 72 h. Formazan absorption was registered using a microplate reader at λ = 540 nm. Antiproliferative activities were expressed as IC50 values (concentrations required for 50% inhibition of cell growth), calculated using nonlinear regression analysis (GraphPad Prism 4 Software, https://www.graphpad.com).
On the technique in general: Tetrazolium assays rely on reduction of a dye to a coloured formazan, in cell work by metabolically active cells.

A short description of data set [2]: In vitro cytotoxicity, 3T3 NRU test. The data set is classed as cell-based. The following applies: mouse, BALB/3T3 clone A31 mouse embryo cells, 24 h incubation, 15 to 2000 μM, read-out: IC50 of Mean ± SD Cytotoxicity BALB 3T3 (CC50). As to the method: The newly synthesized compounds were studied for cytotoxicity assessment by an in vitro 3T3 NRU test. The cells were incubated with the test substances at a concentration of 15 to 2000 μM for 24 h at 37 °C, 5% CO2 and 95% humidity. The cytotoxicity expressed in % relative to the negative control was determined.
The cytotoxicity testing was performed as described by Borenfreund et al. and the latest modification of the validated BALB/3T3 clone A31 Neutral Red Uptake Assay (3T3 NRU test). BALB/3T3 clone A31 mouse embryo cells were grown as a monolayer in 75 cm^2 tissue culture flasks in high-glucose DMEM (4.5 g/L), supplemented with 10% FBS and antibiotics. Cultures were maintained at 37.5 °C in a humidified atmosphere under 5% CO2. Cells were plated at a density of 1 × 10^4 cells in 100 μL culture medium in each well of 96-well flat-bottomed microplates and allowed to adhere for 24 h before treatment with test compounds, dissolved in DMSO and further diluted in culture medium. A wide concentration range was applied (from 15 to 2000 μM), and the cells were incubated for an additional 24 h. After treatment with Neutral Red medium, washing and application of the ethanol/acetic acid solution (NR Desorb), the absorption was measured on a TECAN microplate reader at wavelength 540 nm. The data obtained are on average from three independent experiments ± SD, n = 6.

A further data set concerns Escherichia coli K12 407. The experiment in a line: Antimicrobial assay, agar/disc diffusion, E. coli. The data set is classed as cell-based. The following applies: 6 μL of 20 μM solution on 6 mm paper disc, 24 h. On the procedure: (§3) The microbial cultures were placed in a thin layer on sterile plates. On sterile paper discs, 6 μL of 20 μM solutions in distilled water of the test compounds was placed. Further, the discs were incorporated into a thin layer of sterile plates (Figure 3). The studies were triplicates for each concentration, and the diameters of the obtained zones represent the average value of the three results.
(§4) All newly synthesized derivatives of (KLAKLAK)2-NH2 at concentrations of 20 μM in distilled water were tested against model strains E. coli NBIMCC K12 407, B. subtilis NBIMCC 3562 and C. albicans NBIMCC 74. The strains were obtained from the National Bank for Industrial Microorganisms and Cell Cultures (NBIMCC, Sofia, Bulgaria). Exponential cultures (1 × 10^7 cfu/mL) of strains E. coli K12 407 were obtained in Luria-Bertani (LB, HiMedia, Mumbai, India); for B. subtilis 3562, an initial bacterial concentration of 1 × 10^6 cfu/mL was obtained in nutrient broth (NB, HiMedia, Mumbai, India); and for C. albicans 74, and initial bacterial concentration of 1 × 10^5 cfu/mL was obtained in yeast mold (YM) medium. Cultivation was performed in an ES-20/60 incubator shaker (Biosan, Riga, Latvia) at 30 °C for B. subtilis 3562 and at 37 °C for E. coli K12 407 and C. albicans 74 with shaking at 220 rpm for 24 h. The agar diffusion method was applied to determine the antimicrobial activity of the tested compounds. LB/NB/YM plates were inoculated by spreading 100 μL of each microbial culture on their surface, followed by incubation at 30/37 °C for penetration of suspension into the agar. After 30 min, sterile paper discs (6 mm in diameter) were soaked with the tested compounds in amounts of 6 µL and placed on the surface of agar Petri dishes. The plates were incubated at 30/37 °C for 24 h. Antimicrobial activity was assessed by measuring the diameter of the obtained inhibition zones. Sterile paper discs soaked with water were used as blank controls. Mean values were calculated by performing the experiments in triplicates.
On the technique in general: A growth-free zone around the sample is the usual read-out of agar diffusion tests.

The subject of data set [3] is MCF-10A. The experiment in a line: Antiproliferative activity, MTT dye-reduction assay, MCF-10A. The data set is classed as cell-based, human. The settings on record: 72 h, read-out: IC50 of Mean ± SD Antiproliferative Activity MCF-10A. As to the method:
as §1
MCF-10A is a reliable model for normal human mammary epithelial cells, which serves as a control in experiments to determine antitumor activity.
as §2

Data set [4] relates to MDA-MB-231. The experiment in a line: Antiproliferative activity, MTT dye-reduction assay, MDA-MB-231. The data set is classed as cell-based, human. The following applies: for SI ± SD MDA-MB-231 (selective index): SI = IC50 of MCF-10A/IC50 of MDA-MB-231. On the procedure:
as §1, §2

For another data set, the system named is Bacillus subtilis 3562. The experiment in a line: Antimicrobial assay, agar/disc diffusion, B. subtilis. In kind it is cell-based. The following applies: 6 μL of 20 μM solution on 6 mm paper disc, 24 h. As to the method:
as §3, §4

Data set [5] can be described thus: Hydrolytic stability in model buffer solutions by HPLC. The settings on record: 72 h, model buffer solutions pH 2, pH 7.4 and pH 9, HPLC. In kind it is physicochemical. As to the method: HPLC profiles of all target compounds at three different pH values that mimic human pH in the stomach (pH 2), blood plasma (pH 7.4) and small intestine (pH 9) are presented in the Supplementary Materials.
The designed changes in the structures, i.e., C-terminal amide modification, as well as the introduction of a β-Ala moiety, lead to complete stability of the target compounds during the test period in all model conditions.
The obtained solution was made up to 1000.0 mL with dH2O; • (ii) Buffer with pH 7.4–2.38 g Na2HPO4, 0.19 g KH2PO4 and 8.0 g NaCl was dissolved in dH2O. The obtained solution was made up to 1000.0 mL with dH2O. • (iii) Buffer with pH 9.0–1000.0 mL of solution I was mixed with 420.0 mL of solution II. Solution I: 6.18 g of H3BO3 was dissolved in 0.1 mol/L KCl, and it was made up to 1000.0 mL with the same solvent; Solution II: 0.1 mol/L NaOH.

The next data set deals with Candida albicans 74. The experiment in a line: Antimicrobial assay, agar/disc diffusion, C. albicans. The data set is classed as cell-based. The following applies: 6 μL of 20 μM solution on 6 mm paper disc, 24 h. On the procedure:
as §3, §4

For data set [6], the system named is MCF-7. On the set-up: method as in PMID 33567789. The following applies: MTT; data already published; ref [25]; read-out: IC50 of Mean ± SD Antiproliferative Activity MCF-7; cited from earlier work.
The subject of data set [7] is MDA-MB-231. Details: method as in PMID 33567789. The following applies: MTT; data already published; ref [25]; read-out: IC50 of Mean ± SD Antiproliferative Activity MDA-MB-231; cited from earlier work.
The subject of data set [8] is MCF-10A. Details: method as in PMID 33567789. The following applies: MTT; data already published; ref [25]; read-out: IC50 of Mean ± SD Antiproliferative Activity MCF-10A; cited from earlier work.

Several values for one entry are separate records, joined by “and”; a condition that tells them apart may be missing. Equal entries are not always repeated. Where two headings read alike, the source gives them in different places. No end group written: not given here.

As usually defined, the IC50 is the concentration that inhibits the measured activity by half. As usually defined, the CC50 is the concentration that lowers cell viability or growth by half. The melting point is the temperature, or range, at which the solid turns liquid. `CC(C)C[C@H](NC(=O)[C@H](CCCCN)NC(=O)/C=C/c1ccc(O)c(O)c1)C(=O)N[C@@H](C)C(=O)N[C@@H](CCCCN)C(=O)N[C@@H](CC(C)C)C(=O)N[C@@H](C)C(=O)N[C@@H](CCCCN)C(=O)N[C@@H](CCCCN)C(=O)N[C@@H](CC(C)C)C(=O)N[C@@H](C)C(=O)N[C@@H](CCCCN)C(=O)N[C@@H](CC(C)C)C(=O)N[C@@H](C)C(=O)N[C@@H](CCCCN)C(N)=O` [Si10, Caf-(KLAKLAK)2-NH2]: the melting point is 122 to 124 °C. Also, the IC50 with MCF-7 [1] (MTT, 72 h, read-out: IC50 of Mean ± SD Antiproliferative Activity MCF-7) came to 50.5 ± 1.66 µM. The “SI ± SD MCF-7 (selective index)” value with MCF-7 [1] is 1.4 ± 0.072 and 1.44. For the same molecule, the “SI ± SD MCF-7 (selective index)” value in the data set on MCF-7 [1] (listed as Si 10) is reported as 1.436 ± 0.072. Also, in [2], the CC50 at 24 h amounted to 173 ± 8.51 µM. Moreover, the “Inhibition zones size, Escherichia coli K12 407” value in the data set on Escherichia coli K12 407 was 13.33 ± 0.33 mm. For the same molecule, the IC50 with MCF-10A [3] stood at 72.5 ± 4.69 µM. Further, the half-maximal inhibitory concentration (IC50) in the data set with MDA-MB-231 [4] (MTT, 72 h, read-out: IC50 of Mean ± SD Antiproliferative Activity MDA-MB-231) came out at 177 ± 2.79 µM. In addition, the “SI ± SD MDA-MB-231 (selective index)” value in the data set on MDA-MB-231 [4] came out at 0.411 ± 0.023. For the same molecule, the “Inhibition zones size, Bacillus subtilis 3562” value in the data set on Bacillus subtilis 3562 worked out at 12.66 ± 0.31 mm. In addition, the Hydrolytic stability entry in [5] is “complete hydrolytic stability”. Also, the “Inhibition zones size, Candida albicans 74” value in the data set with Candida albicans 74 was determined as 17.66 ± 0.41 mm.
Consider `CC(C)C[C@H](NC(=O)[C@H](CCCCN)NC(=O)[C@H](C)NC(=O)[C@H](CC(C)C)NC(=O)[C@H](CCCCN)NC(=O)[C@H](CCCCN)NC(=O)[C@H](C)NC(=O)[C@H](CC(C)C)NC(=O)[C@H](CCCCN)NC(=O)[C@H](C)NC(=O)[C@H](CC(C)C)NC(=O)[C@@H](N)CCCCN)C(=O)N[C@@H](C)C(=O)N[C@@H](CCCCN)C(N)=O` [Si1, (KLAKLAK)2-NH2], for which, in the data set with MCF-7 [1], the “SI ± SD MCF-7 (selective index)” value came out at 1.243 ± 0.052. For the same molecule, the IC50 in the data set with MCF-7 [6] is 124 ± 8.12 µM; with MDA-MB-231 [7], 746 ± 7.6 µM; with MCF-10A [8], 154 ± 6.53 µM. The “SI ± SD MDA-MB-231 (selective index)” value in the data set with MDA-MB-231 [4] was 0.206 ± 0.007.
For the molecule KLAKLAK-NH2 [Si6], the IC50 in the data set with MCF-7 [6], in the data set on MDA-MB-231 [7] and with MCF-10A [8] was > 2000 µM in each case.

Source of the values: article PMC8658989, “Synthesis and Biological Studies on (KLAKLAK)2-NH2 Analog Containing Unnatural Amino Acid β-Ala and Conjugates with Second Pharmacophore” (Molecules, 2021).
